The target of this test is T1, CDK4/cyclin D3 (Homo sapiens, UniProt P11802).
T1 construct: made in house; host or cells: insect cells (baculovirus co-infection)
Kind of test: Inhibition of CDK4/Cyclin D retinoblastoma kinase activity.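 As to % Inhib CDK4/D @ 1 μM: relative to DMSO control wells without compound minus no-enzyme background.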 Format: biochemical. The following applies: for inhibition at 0.1 µM / % Inhib CDK4/D @ 0.1 μM: test compound at 0.1 μM; for inhibition at 0.1 µM: read-out: % Inhib CDK4/D @ 0.1 μM; for inhibition at 1 µM / % Inhib CDK4/D @ 1 μM: test compound at 1 μM (head line shifted: 'mM' printed beside 'Structure'); for inhibition at 1 µM: read-out: % Inhib CDK4/D @ 1 μM; for inhibition at 0.03 µM / % Inhib CDK4/D @ 0.03: test compound at 0.03 (unit cell empty, head line shifted; μM); for inhibition at 0.03 µM: read-out: % Inhib CDK4/D @ 0.03. In outline:
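Human CDK4 with truncated cyclin D3 (1-264) from baculovirus-infected insect cells, 5 nM, phosphorylating His-tagged Rb fragment (386-928) with 25 μM [32P/33P]ATP in pH 7.4 HEPES/MgCl2, 2% DMSO, 30° C., 20 min (60 min for tight binders). Filter capture, phosphorimager; apparent Ki from competitive or tight-binding competitive fits.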

The values below come from patent US20040176431A1, “Antiproliferative 2-(sulfo-phenyl)-aminothiazole derivatives and pharmaceutical compositions, and methods for their use” (Pfizer, Inc., priority 2003, published 2004).

T1 sequence (P11802 whole entry): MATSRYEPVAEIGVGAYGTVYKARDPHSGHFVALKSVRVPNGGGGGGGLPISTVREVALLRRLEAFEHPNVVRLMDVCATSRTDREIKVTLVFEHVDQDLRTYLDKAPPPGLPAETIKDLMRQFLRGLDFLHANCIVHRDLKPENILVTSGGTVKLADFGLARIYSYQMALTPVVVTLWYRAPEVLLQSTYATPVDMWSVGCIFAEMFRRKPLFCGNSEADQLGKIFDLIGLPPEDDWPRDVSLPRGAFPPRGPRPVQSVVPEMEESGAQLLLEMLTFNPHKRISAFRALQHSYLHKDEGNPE
T1 sequence (P30281 1-264 partner limits assumed): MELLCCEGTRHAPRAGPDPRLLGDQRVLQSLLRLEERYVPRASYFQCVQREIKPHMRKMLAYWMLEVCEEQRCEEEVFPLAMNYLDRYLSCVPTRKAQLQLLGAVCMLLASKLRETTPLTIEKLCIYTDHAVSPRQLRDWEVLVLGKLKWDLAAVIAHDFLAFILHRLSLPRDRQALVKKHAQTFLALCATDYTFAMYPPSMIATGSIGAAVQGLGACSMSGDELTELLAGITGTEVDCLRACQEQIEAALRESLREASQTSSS

As to `COCC[S+]([O-])c1cccc(Nc2nc(N)c(C(=O)c3c(Cl)cccc3Cl)s2)c1` (stereo not drawn) [DD(134)], the inhibition at 0.1 µM is 48%, the inhibition at 1 µM came out at 49.9% and the inhibition at 0.03 µM worked out at 8.4%.
Taken in the same sequence, the figures for `Nc1nc(Nc2cccc([S+]([O-])CC(=O)Nc3ccccc3)c2)sc1C(=O)c1c(Cl)cccc1Cl` (stereo not drawn) [DD(135)] were 42%, 51.9% and 16%.
`Nc1nc(Nc2cccc([S+]([O-])CC3CC3)c2)sc1C(=O)c1c(Cl)cccc1Cl` (stereo not drawn) [DD(136)]: the inhibition at 0.1 µM worked out at 27%, the inhibition at 1 µM came to 44.9% and the inhibition at 0.03 µM stood at 14%.
As for `COc1cccc(C[S+]([O-])c2cccc(Nc3nc(N)c(C(=O)c4c(Cl)cccc4Cl)s3)c2)c1` (stereo not drawn) [DD(137)], the inhibition at 0.1 µM turned out to be 22%, the inhibition at 1 µM stood at 36.7% and the inhibition at 0.03 µM was -1.7%.
`Nc1nc(Nc2cccc([S+]([O-])CC3CCCO3)c2)sc1C(=O)c1c(Cl)cccc1Cl` (stereo not drawn) [DD(138)]: the inhibition at 0.1 µM stood at 34%, the inhibition at 1 µM was 63.8% and the inhibition at 0.03 µM worked out at 2.9%.
`CN1CCCC1CC[S+]([O-])c1cccc(Nc2nc(N)c(C(=O)c3c(Cl)cccc3Cl)s2)c1` (stereo not drawn) [DD(139)]: the inhibition at 0.1 µM stood at 53%, the inhibition at 1 µM is 77.6% and the inhibition at 0.03 µM is 17%.
As to `CC1(C[S+]([O-])c2cccc(Nc3nc(N)c(C(=O)c4c(Cl)cccc4Cl)s3)c2)CO1` (stereo not drawn) [DD(140)], the inhibition at 0.1 µM was 41%, the inhibition at 1 µM came out at 68% and the inhibition at 0.03 µM was 25%.
For the compound `NC(=O)C[S+]([O-])c1cccc(Nc2nc(N)c(C(=O)c3c(Cl)cccc3Cl)s2)c1` (stereo not drawn) [DD(141)], the inhibition at 0.1 µM came out at 71%, the inhibition at 1 µM was determined as 64.5% and the inhibition at 0.03 µM was determined as 36%.
With `CCOC(=O)CC[S+]([O-])c1cccc(Nc2nc(N)c(C(=O)c3c(Cl)cccc3Cl)s2)c1` (stereo not drawn) [DD(142)], the inhibition at 0.1 µM came out at 36%, the inhibition at 1 µM is 39.3% and the inhibition at 0.03 µM was -2.6%.
As for `CC(C)OC(=O)C[S+]([O-])c1cccc(Nc2nc(N)c(C(=O)c3c(Cl)cccc3Cl)s2)c1` (stereo not drawn) [DD(143)], the inhibition at 0.1 µM amounted to 24%, the inhibition at 1 µM amounted to 36.7% and the inhibition at 0.03 µM came out at 15%.
The like results for `CC(C)=CC[S+]([O-])c1cccc(Nc2nc(N)c(C(=O)c3c(Cl)cccc3Cl)s2)c1` (stereo not drawn) [DD(144)] were, in that order, 12%, 27.7% and -66%.
Taken in the same sequence, the figures for `CCC[S+]([O-])c1cccc(Nc2nc(N)c(C(=O)c3c(Cl)cccc3Cl)s2)c1` (stereo not drawn) [DD(145)] were 32%, 42.3% and 4.2%.
On to `COC(=O)C[S+]([O-])c1cccc(Nc2nc(N)c(C(=O)c3c(Cl)cccc3Cl)s2)c1` (stereo not drawn) [DD(146)], for which the inhibition at 0.1 µM turned out to be 53%, the inhibition at 1 µM is 47.6% and the inhibition at 0.03 µM came to 15%.
On to `CN1CCCC(C[S+]([O-])c2cccc(Nc3nc(N)c(C(=O)c4c(Cl)cccc4Cl)s3)c2)C1` (stereo not drawn) [DD(147)], for which the inhibition at 0.1 µM amounted to 38%, the inhibition at 1 µM was 39.6% and the inhibition at 0.03 µM was 19%.
As to `NC(=O)CC[S+]([O-])c1cccc(Nc2nc(N)c(C(=O)c3c(Cl)cccc3Cl)s2)c1` (stereo not drawn) [DD(148)], the inhibition at 0.1 µM worked out at 53%, the inhibition at 1 µM amounted to 65.5% and the inhibition at 0.03 µM amounted to 35%.
With `Nc1nc(Nc2cccc([S+]([O-])CCO)c2)sc1C(=O)c1c(Cl)cccc1Cl` (stereo not drawn) [DD(149)], the inhibition at 0.1 µM was found to be 55%, the inhibition at 1 µM is 57.7% and the inhibition at 0.03 µM was determined as 33%.
The like results for `CC(C)CCC[S+]([O-])c1cccc(Nc2nc(N)c(C(=O)c3c(Cl)cccc3Cl)s2)c1` (stereo not drawn) [DD(150)] were, in that order, 21%, 10.4% and 5.6%.
For the compound `CC(C)CCOC(=O)C[S+]([O-])c1cccc(Nc2nc(N)c(C(=O)c3c(Cl)cccc3Cl)s2)c1` (stereo not drawn) [DD(151)], the inhibition at 0.1 µM was 9.2%, the inhibition at 1 µM is 34.3% and the inhibition at 0.03 µM is 16%.
In the case of `CN(C)CC[S+]([O-])c1cccc(Nc2nc(N)c(C(=O)c3c(Cl)cccc3Cl)s2)c1` (stereo not drawn) [DD(152)], the inhibition at 0.1 µM turned out to be 28%, the inhibition at 1 µM was 57.3% and the inhibition at 0.03 µM was determined as 21%.
Regarding `CCOCC[S+]([O-])c1cccc(Nc2nc(N)c(C(=O)c3c(Cl)cccc3Cl)s2)c1` (stereo not drawn) [DD(153)], the inhibition at 0.1 µM came to 44%, the inhibition at 1 µM is 51.8% and the inhibition at 0.03 µM is 15%.
On to `Nc1nc(Nc2cccc([S+]([O-])CC(O)CO)c2)sc1C(=O)c1c(Cl)cccc1Cl` (stereo not drawn) [DD(154)], for which the inhibition at 0.1 µM was found to be 60%, the inhibition at 1 µM was 73.5% and the inhibition at 0.03 µM was 31%.
On to `Nc1nc(Nc2cccc([S+]([O-])Cc3ccncc3)c2)sc1C(=O)c1c(Cl)cccc1Cl` (stereo not drawn) [DD(155)], for which the inhibition at 0.1 µM was found to be 35%, the inhibition at 1 µM stood at 59.6% and the inhibition at 0.03 µM is 25%.
`CCC(CC)C[S+]([O-])c1cccc(Nc2nc(N)c(C(=O)c3c(Cl)cccc3Cl)s2)c1` (stereo not drawn) [DD(156)]: the inhibition at 0.1 µM was determined as 25%, the inhibition at 1 µM is 15.1% and the inhibition at 0.03 µM amounted to 17%.
As for `CC(=O)OCC[S+]([O-])c1cccc(Nc2nc(N)c(C(=O)c3c(Cl)cccc3Cl)s2)c1` (stereo not drawn) [DD(157)], the inhibition at 0.1 µM stood at 42%, the inhibition at 1 µM came out at 59.7% and the inhibition at 0.03 µM was 21%.
As for `CC(C)OC(=O)CC[S+]([O-])c1cccc(Nc2nc(N)c(C(=O)c3c(Cl)cccc3Cl)s2)c1` (stereo not drawn) [DD(158)], the inhibition at 0.1 µM is 27%, the inhibition at 1 µM stood at 35% and the inhibition at 0.03 µM was found to be 22%.
Taken in the same sequence, the figures for `Nc1nc(Nc2cccc([S+]([O-])CCN3CCOCC3)c2)sc1C(=O)c1c(Cl)cccc1Cl` (stereo not drawn) [DD(159)] were 25%, 44% and 36%.
As to `CC(C)(CO)C[S+]([O-])c1cccc(Nc2nc(N)c(C(=O)c3c(Cl)cccc3Cl)s2)c1` (stereo not drawn) [DD(160)], the inhibition at 0.1 µM was 19%, the inhibition at 1 µM turned out to be 49% and the inhibition at 0.03 µM was determined as 8.1%.
Regarding `CCN(CC)C(=O)CS(=O)(=O)c1ccc(Nc2nc(N)c(C(=O)c3c(Cl)cccc3Cl)s2)cc1` [DD(161)], the “% Inhib CDK4/D @ 0.1 μM” value is recorded as −7%, the inhibition at 1 µM stood at 9.1% and the “% Inhib CDK4/D @ 0.03” value is −9.2%.
Take `Cc1noc(C)c1CS(=O)(=O)c1ccc(Nc2nc(N)c(C(=O)c3c(Cl)cccc3Cl)s2)cc1` [DD(162)]: the “% Inhib CDK4/D @ 0.1 μM” value was found to be 13%, the “% Inhib CDK4/D @ 1 μM” value is on record as 14% and the “% Inhib CDK4/D @ 0.03” value is given as 5.8%.
Consider `CC(CN(C)C)CS(=O)(=O)c1ccc(Nc2nc(N)c(C(=O)c3c(Cl)cccc3Cl)s2)cc1` (stereo not drawn) [DD(163)], for which the inhibition at 0.1 µM is 27%, the inhibition at 1 µM stood at 52.8% and the inhibition at 0.03 µM is -5.8%.
On to `COC(=O)/C=C/CS(=O)(=O)c1ccc(Nc2nc(N)c(C(=O)c3c(Cl)cccc3Cl)s2)cc1` [DD(164)], for which the “% Inhib CDK4/D @ 0.1 μM” value was found to be 8.6%, the “% Inhib CDK4/D @ 1 μM” value was −6.9% and the “% Inhib CDK4/D @ 0.03” value is reported as −7.4%.
As for `Nc1nc(Nc2ccc(S(=O)(=O)CCCO)cc2)sc1C(=O)c1c(Cl)cccc1Cl` [DD(165)], the “% Inhib CDK4/D @ 0.1 μM” value is 10%, the “% Inhib CDK4/D @ 1 μM” value is reported as 34.3% and the “% Inhib CDK4/D @ 0.03” value is listed as −1.8%.
On to `C=CCCS(=O)(=O)c1ccc(Nc2nc(N)c(C(=O)c3c(Cl)cccc3Cl)s2)cc1` [DD(166)], for which the inhibition at 0.1 µM worked out at 14%, the “% Inhib CDK4/D @ 1 μM” value is listed as 14.5% and the “% Inhib CDK4/D @ 0.03” value was found to be 3.5%.
On to `Nc1nc(Nc2ccc(S(=O)(=O)CCN3CCCC3)cc2)sc1C(=O)c1c(Cl)cccc1Cl` [DD(167)], for which the “% Inhib CDK4/D @ 0.1 μM” value was found to be 17%, the “% Inhib CDK4/D @ 1 μM” value is 0.8% and the “% Inhib CDK4/D @ 0.03” value is reported as −2.5%.
`Nc1nc(Nc2ccc(S(=O)(=O)Cc3ncon3)cc2)sc1C(=O)c1c(Cl)cccc1Cl` [DD(168)]: the “% Inhib CDK4/D @ 0.1 μM” value came to 7.8%, the inhibition at 1 µM came out at 30.7% and the “% Inhib CDK4/D @ 0.03” value was 8.3%.
Consider `Nc1nc(Nc2ccc(S(=O)(=O)CC3CNC(=O)O3)cc2)sc1C(=O)c1c(Cl)cccc1Cl` (stereo not drawn) [DD(169)], for which the “% Inhib CDK4/D @ 0.1 μM” value came out at 33%, the “% Inhib CDK4/D @ 1 μM” value came out at 36.4% and the “% Inhib CDK4/D @ 0.03” value was determined as 44%.
For `CN(C)CCCS(=O)(=O)c1ccc(Nc2nc(N)c(C(=O)c3c(Cl)cccc3Cl)s2)cc1` [DD(170)], the inhibition at 0.1 µM came to 18%, the inhibition at 1 µM came out at 25.8% and the inhibition at 0.03 µM is 22%.
With `Nc1nc(Nc2ccc(S(=O)(=O)CCN3CCCCC3)cc2)sc1C(=O)c1c(Cl)cccc1Cl` [DD(171)], the inhibition at 0.1 µM came out at 21%, the “% Inhib CDK4/D @ 1 μM” value is 17.1% and the “% Inhib CDK4/D @ 0.03” value was −29%.
With `Nc1nc(Nc2ccc(S(=O)(=O)CC3CO3)cc2)sc1C(=O)c1c(Cl)cccc1Cl` (stereo not drawn) [DD(172)], the inhibition at 0.1 µM is 24%, the “% Inhib CDK4/D @ 1 μM” value came to 24.9% and the “% Inhib CDK4/D @ 0.03” value is reported as −26%.
The like results for `CC(C)CCS(=O)(=O)c1ccc(Nc2nc(N)c(C(=O)c3c(Cl)cccc3Cl)s2)cc1` [DD(173)] were, in that order, 17%, 14.5% and −11%.
